Measurements reported in patent publication US20130071897A1, “METHOD FOR CONTROLLING UNDESIRABLE BYPRODUCTS FORMATION CAUSED BY CONTAMINATING ORGANISMS IN THE PRODUCTION OF ETHANOL FROM SYNGAS” (COSKATA, INC., priority 2011, published 2013).

How the values were obtained:
C. coskatii = assay: Balch tube batch growth of homoacetogen C. coskatii on fructose, optical density; format: cell-based; conditions: added 21 h after inoculation
Protocol: Compounds A and D were again tested to determine their effect on another known homoacetogen. Each compound was tested in a series of batch experiments to determine the growth response of the homoacetogen to the presence of the compound at varying concentrations. These batch experiments were again all conducted by anoxically filling a Balch tube with 5 ml of a fermentation medium having the composition given in Tables 2 and 3. To expedite results, these batch experiments used fructose as the growth nutrient source for bacteria. Thus, the media included 5 g/L of fructose.
Each tube was inoculated with 0.5 ml of the same strain of C. coskatii bacteria seed culture inoculum. The tubes were maintained at a temperature of 37° C. Twenty one hours after the inoculation of the tube with the bacteria, the different crotonate derivatives from Table 1 were added to different tubes in the amounts indicated in Table 5. This was at a time of early to mid-log phase growth for the bacteria. Each fermentation of the bacteria in the media at the different concentration of crotonate derivatives were allowed to progress and were monitored to determine the bacteria growth at selected intervals of time varying from approximately 20 hours to 50 hours. Growth at the intervals was determined by measurement of the OD in the manner described in Example 1. The ability of a tube fermentation at a particular concentration of crotonate derivative to reach a predetermined optical density was recorded in Table 5. Table 5 indicates the presence of bacterial growth to an OD of approximately 1.6 or above with a “+”. All the samples of C. Coskatii reached a relatively high OD after a time of only 50 hours.

[1] = tested on: Clostridium carboxydivorans; assay: Balch tube batch growth of heteroacetogenic bacteria Clostridium carboxydivorans on fructose, optical density; format: cell-based; set-up: key to Optical density valuation of C. carboxidivorans: +: bacterial growth to an OD of approximately 1.8; +/−: one duplicate test tube showed a + indication and the other showed an optical density of less than 0.5; conditions: for Optical density valuation of C. carboxidivorans: added 20 h after inoculation; for Inhibition effect for reducing butyrogen growth: summary of Examples 1-5
Protocol: Similar experiments were conducted to determine the effect of the crotonate derivatives on heteroacetogenic bacteria. Selected crotonate derivatives were tested in a series of batch experiments to determine the growth response of butyrogens to the presence of the compounds at varying concentrations. The batch experiments were all conducted by anoxically filling a 20 ml Balch tube with 5 ml of a fermentation medium having the composition given in Tables 2 and 3. The media included 0.5 v/v final concentration of a fructose substrate. For each of the crotonate concentrations tested, duplicate test tubes were prepared.
Each tube was inoculated with 0.5 ml of the heteroacetogenic bacteria Clostridium carboxydivorans. The tubes were maintained at a temperature of 37° C. At a time 20 hours after the inoculation of the bacteria different crotonate derivatives from Table 1 were added to different tubes in the amounts indicated in Table 7. This was at a time of early to mid-log phase growth. Each fermentation of the bacteria in the media at the different concentration of crotonate derivatives were allowed to progress and were monitored to determine the bacteria growth at selected intervals of time varying from approximately 20 hours to 54 hours. Growth at the different intervals was measured by reading the optical density (OD) of the fermentation liquid. Optical density was measured as described in Example 1. The ability of a tube fermentation at a particular concentration of crotonate derivative to reach a predetermined optical density was recorded in Table 7. Table 7 indicates the presence of bacterial growth to an OD of approximately 1.8 with a “+”.
Compound A was tested again in set of experiments in all respects the same as that described for Example 4 except that compound A was added to Balch tubes in the amounts indicated in Table 7 at a time 5.5 hours after the inoculation of the bacteria. This was at a time in early log phase growth. In this case the Balch tube that contained no compound A reached an OD of 2 after 29 hours or less.

acyl-CoA dehydrogenases = assay: In vitro acyl-CoA dehydrogenase ferrocenium assay with C. tyrobutyricum cell-free extract; format: biochemical; conditions: 0.5 to 10 mM compound, rate of ferrocenium reduction at 300 nm
How it was run: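 Lysozyme-lysed cell-free extract of early-log C. tyrobutyricum was assayed anaerobically at laboratory temperature in 50 mM Tris-HCl pH 7.6 with 0.05 mM butyryl-CoA, FAD and 0.4 mM ferrocenium. Ferrocenium reduction was followed at 300 nm over 10–20 min, and the rate slope was plotted against compound concentration to give a dose-response slope.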

O=C(O)C=C(C(F)(F)F)C(F)(F)F [D, 4,4,4-trifluoro-3-(trifluoromethyl)crotonic acid]
Optical density valuation of C. coskatii (C. coskatii; 100 ppm(m)): + (bacterial growth to an OD of approximately 1.6 or above)
Optical density valuation of C. coskatii (C. coskatii; 500 ppm(m)): + (bacterial growth to an OD of approximately 1.6 or above)
Optical density valuation of C. coskatii (C. coskatii; 1000 ppm(m)): + (bacterial growth to an OD of approximately 1.6 or above)
Optical density valuation of C. carboxidivorans ([1]; 100 ppm(m)): + (bacterial growth to an OD of approximately 1.8)
Optical density valuation of C. carboxidivorans ([1]; 500 ppm(m)): + (bacterial growth to an OD of approximately 1.8)
Optical density valuation of C. carboxidivorans ([1]; 1000 ppm(m)): +/−
Inhibition effect for reducing butyrogen growth [1]: showed inhibition effect

CCOC(=O)C=C(C(F)(F)F)C(F)(F)F [Compound A, ethyl 4,4,4-trifluoro-3-(trifluoromethyl)crotonate]
Optical density valuation of C. coskatii (C. coskatii; 100 ppm(m)): + (bacterial growth to an OD of approximately 1.6 or above)
Optical density valuation of C. coskatii (C. coskatii; 500 ppm(m)): + (bacterial growth to an OD of approximately 1.6 or above)
Optical density valuation of C. coskatii (C. coskatii; 1000 ppm(m)): + (bacterial growth to an OD of approximately 1.6 or above)
Dose-Response Slope (acyl-CoA dehydrogenases): about 8
Dose-Response Slope (acyl-CoA dehydrogenases; listed as Ethyl 4,4,4-trifluoro-3-(trifluoromethyl)crotonate): 8
Optical density valuation of C. carboxidivorans ([1]; 100 ppm(m)): + (bacterial growth to an OD of approximately 1.8)
OD of C. carboxidivorans tube fermentations ([1]; 500 and 1000 ppm added 5.5 hours after inoculation): ≤ 0.5
Optical density valuation of C. carboxidivorans ([1]; 500 ppm(m)): + (bacterial growth to an OD of approximately 1.8)
Optical density valuation of C. carboxidivorans ([1]; 1000 ppm(m)): + (bacterial growth to an OD of approximately 1.8)
Inhibition effect for reducing butyrogen growth [1]: showed inhibition effect

CCOC(=O)/C=C(\N)C(F)(F)F [B, ethyl-3-amino-4,4,4-trifluorocrotonate]
Dose-Response Slope (acyl-CoA dehydrogenases): 25
